According to US20170087149A9, “TREATMENT FOR […]” (priority 2013, published 2017):

Test system: collapsing trachea
Test: Treatment of collapsing trachea in dogs (case reports)
Assay type: in vivo, dog
Details: Pomeranian
Description: Upon presentation, the patient had severe dyspnea and coughing.
Oxycodone sustained release was prescribed, 10 mg twice daily. […] When appetite returned (along with resumed coughing) the patient's dosage was adjusted to 2.5 mg twice daily (cutting the 10 mg tablets in quarters). […] On two occasions when the beginning of a cough was observed, a single additional 2.5 mg tablet was administered, followed by return to the original twice-daily dosing regimen.
The treatment described in Example 1 has been successfully repeated in two additional dogs diagnosed as having collapsing trachea.

O=C(O)C(O)C(O)C(=O)O.Oc1ccc2c(c1)[C@@]13CCCC[C@@]1(O)[C@@H](C2)N(CC1CCC1)CC3 [Torbutrol, butorphenol]
cough (prior treatment, history) (history before presentation): had been controlling the cough | exercise tolerance and panting (prior treatment, history) (history before presentation): highly intolerant to exercise (to the point of having to be carried) and continuously panting | response at presentation (refractory stage) (severe intrathoracic collapsing trachea at presentation): stopped responding
